Laboratory results published in US7371734B2, “Oligonucleotide compositions and their use for the modulation of immune responses” (Bioniche Life Sciences Inc., priority 2002, dated 2008).
Marks after values point to notes of the source that are not given here.

Columns and labels:
Format in all cases: cell-based
Human dendritic cells [1] = assay: Increase in cell size and granularity of DC (flow cytometry); conditions: 100 μg polynucleotide, 48 hours
Description: (§1) Human dendritic cells were obtained from Clonetics (San Diego, Calif., USA) and were cultured in the medium recommended by Clonetics. DC were obtained from three different individuals (see Table 1). Major histocompatability typing was performed on each of these individuals and several of the HLA (human leukocyte antigens) types are shown.
DC were seeded in 1.0 ml at 1.0×10^5 cells/ml in 6-well flat-bottomed tissue culture plates for 48 hours with 100 μg of 6 base N1A, N1B, N2A, N2B, N3A, N3B, N4A, N4B, N5A, N5B, N6A, N6B, N7A or N7B polynucleotides. Cell size (FCS: forward side scatter) and granularity (S SC: side light scatter) were determined by flow cytometry using a FACSCalibur and analyzed using the CELLQuest Pro software (both from Becton-Dickinson, San Diego, Calif., USA). Percentage of DC showing a FCS>500 units and a SSC>400 units have been determined after treatment with 3-OH, 5-OH polynucleotides for DC isolated from three different individuals.

Human dendritic cells [2] = assay: CD86 levels at the DC cell surface (flow cytometry); conditions: 100 μg, 48 hours
Description: as §1
DC from individuals B and C were seeded in 1.0 ml at 1.0×10^5 cells/ml in 6-well flat-bottomed tissue culture plates for 48 hours with 100 μg of 6 base N1A, N1B, N2A, N2B, N3A, N3B, N4A, N4B, N5A, N5B, N6A, N6B, N7A or N7B polynucleotides. The level of CD86 at the cell surface was determined after 48 hours of incubation by flow cytometry using a PE-conjugated monoclonal antibody directed to CD86 (Serotec) and analyzed by CELLQuest Pro. Results are expressed as the percentage of CD86^hi DC following treatment.

Human dendritic cells [3] = assay: CD40 levels at the DC cell surface (flow cytometry); conditions: 100 μg, 48 hours
Description: as §1
DC from individuals B and C were seeded in 1.0 ml at 1.0×10^5 cells/ml in 6-well flat-bottomed tissue culture plates for 48 hours with 100 μg of 6 base N1A, N1B, N2A, N2B, N3A, N3B, N4A, N4B, N5A, N5B, N6A, N6B, N7A or N7B polynucleotides. The level of CD40 at the cell surface was determined after 48 hours of incubation by flow cytometry (FACSCalibur system) using a FITC-conjugated monoclonal antibody directed to CD40 and analyzed by CELLQuest Pro (all from Becton Dickinson). Results are expressed as the percentage of CD40^hi DC following treatment. The term “CD40^hi” refers to a population of cells identified by flow cytometry as having higher than baseline expression of CD40.

Human dendritic cells [4] = assay: Induction of IL-1beta production by DC (ELISA); conditions: 100 μg, 48 hours
Description: as §1
DC were seeded in 1.0 ml at 1.0×10^5 cells/ml in 6-well flat-bottomed tissue culture plates for 48 hours with 100 μg of 6 base N1A, N1B, N2A, N2B, N3A, N3B, N4A, N4B, N5A, N5B, N6A, N6B, N7A or N7B polynucleotides. Production of IL-1beta was determined in 100 μl of culture supernatant using a commercial ELISA (BioSource, Camarillo, Calif., USA) after 48 hours of incubation. Results are expressed as the “fold” (x) increase in IL-1beta production by treated DC compared to control cells.

Human dendritic cells [5] = assay: CD80 levels at the DC cell surface (flow cytometry); conditions: 100 μg, 48 hours
Description: as §1
DC from individuals B and C were seeded in 1.0 ml at 1.0×10^5 cells/ml in 6-well flat-bottomed tissue culture plates for 48 hours with 100 μg of 6 base N1A, N1B, N2A, N2B, N3A, N3B, N4A, N4B, N5A, N5B, N6A, N6B, N7A or N7B polynucleotides. The level of CD80 at the cell surface was determined after 48 hours of incubation by flow cytometry using a FITC-conjugated monoclonal antibody directed to CD80 (Serotec, Oxford, U.K.) and analyzed by CELLQuest. Results are expressed as the percentage of CD80^hi DC following treatment.

Human dendritic cells [6] = assay: Induction of IFN-gamma production by DC (ELISA); conditions: 100 μg, 48 hours
Description: as §1
DC were seeded in 1.0 ml at 1.0×10^5 cells/ml in 6-well flat-bottomed tissue culture plates for 48 hours with 100 μg of6 base N1A, N1B, N2A, N2B, N3A, N3B, N4A, N4B, N5A, N5B, N6A, N6B, N7A or N7B polynucleotides. Production of IFN-gamma was determined in 100 μl of culture supernatant using a commercial ELISA (BioSource) after 48 hours of incubation. Results are expressed as the “fold” (x) increase in IFN-gamma production by treated DC compared to control cells.

Human dendritic cells [7] = assay: Induction of IL-12 production by DC (ELISA); conditions: 100 μg, 48 hours
Description: as §1
DC were seeded in 1.0 ml at 1.0×10^5 cells/ml in 6-well flat-bottomed tissue culture plates for 48 hours with 100 μg of 6 base N1A, N1B, N2A, N2B, N3A, N3B, N4A, N4B, N5A, N5B, N6A, N6B, N7A or N7B polynucleotides. Production of IL-12 was determined in 100 μl of culture supernatant using a commercial ELISA (BioSource) after 48 hours of incubation. Results are expressed as the “fold” (x) increase in IL-12 production by treated DC compared to control cells.

Human dendritic cells [8] = assay: MHC-II levels at the DC cell surface (flow cytometry); conditions: DC from individual B; 100 μg, 48 hours
Description: as §1
DC from individual B were seeded in 1.0 ml at 1.0×10^5 cells/ml in 6-well flat-bottomed tissue culture plates for 48 hours with 100 μg of 6 base N1A, N1B, N2A, N2B, N3A, N3B, N5A, N5B, N6A, N6B, N7A or N7B polynucleotides. The level of MHC II at the cell surface was determined after 48 hours of incubation by flow cytometry using a FITC-conjugated monoclonal antibody directed to MHC II (Serotec) and analyzed by CELLQuest Pro. Results are expressed as the percentage of MHC II^hi DC following treatment.

Human dendritic cells [9] = assay: Endocytosis of FITC-dextran by DC; conditions: DC from individual B, 100 μg, 24 hours, untreated control = 100
Description: as §1
DC from individual B were seeded in 1.0 ml at 1.0×10^5 cells/ml in 6-well flat-bottomed tissue culture plates for 24 hours with 1 mg/ml of FITC-dextran (20 kDa; Sigma-Aldrich) in the absence or presence of 100 μg of 6 base N2A, N2B, N3A, N3B, N5A, N5B, and N6B polynucleotides at 4° C. (control cell surface binding of FITC-dextran) and 37° C. (to assess endocytosis). Cells were washed three times with ice-cold phosphate buffered saline and analyzed by flow cytometry using CELLQuest Pro. Results are expressed as relative endocytic rate (normalized Δ Mean Fluorescence Value (Δ MFV)). Δ MFV=MFV of DC exposed to FITC-dextran at 37° C.−MFV of DC exposed to FITC-dextran at 4° C. Δ MFV=(ΔMFVsequence/ΔMFVcontrol)×100.

Substance	Percentage of DC showing a FCS > 500 units and a SSC > 400 units (Human dendritic cells [1]; DC isolated from individual A)	Percentage of DC showing a FCS > 500 units and a SSC > 400 units (Human dendritic cells [1]; DC isolated from individual B)	Percentage of DC showing a FCS > 500 units and a SSC > 400 units (Human dendritic cells [1]; DC isolated from individual C)	The percentage of CD86^hi DC following treatment (Human dendritic cells [2]; DC from individual B)	The percentage of CD86^hi DC following treatment (Human dendritic cells [2]; DC from individual C)	The percentage of CD40^hi DC following treatment (Human dendritic cells [3]; DC from individual B)	The percentage of CD40^hi DC following treatment (Human dendritic cells [3]; DC from individual C)	IL-1beta production by DC (fold increase compared to untreated DC) (Human dendritic cells [4]; DC isolated from individual A)	IL-1beta production by DC (fold increase compared to untreated DC) (Human dendritic cells [4]; DC isolated from individual B)	IL-1beta production by DC (fold increase compared to untreated DC) (Human dendritic cells [4]; DC isolated from individual C)	The percentage of CD80^hi DC following treatment (Human dendritic cells [5]; DC from individual B)	The percentage of CD80^hi DC following treatment (Human dendritic cells [5]; DC from individual C)	IFN-gamma production by DC (fold increase compared to untreated DC) (Human dendritic cells [6]; DC isolated from individual A)	IFN-gamma production by DC (fold increase compared to untreated DC) (Human dendritic cells [6]; DC isolated from individual B)	IFN-gamma production by DC (fold increase compared to untreated DC) (Human dendritic cells [6]; DC isolated from individual C)	IL-12 production by DC (fold increase compared to untreated DC) (Human dendritic cells [7]; DC isolated from individual A)	IL-12 production by DC (fold increase compared to untreated DC) (Human dendritic cells [7]; DC isolated from individual B)	IL-12 production by DC (fold increase compared to untreated DC) (Human dendritic cells [7]; DC isolated from individual C)	The percentage of MHC-II^hi DC following treatment (Human dendritic cells [8])	Relative endocytic rate (normalized Δ MFV) (Human dendritic cells [9])
5′GGGGGG3′ [N5A] (unmodified DNA)	10%	19%	36%	20%	16%	40** %	30** %	1.1 fold	1.1 fold	1.0 fold	18%	14%	1.1 fold	1.1 fold	1.0 fold	0.9 fold	1.1 fold	1.0 fold	19%	209
5′GGGGGG3′ [N5B]	53%	16%	23%	26** %	31** %	21%	15%	5.0 fold	7.5 fold	3.7 fold	3%	10%	3.5 fold	5.0 fold	1.5 fold	7.5 fold	17.8 fold	15.0 fold	18%	151
5′GGTGGG3′ [N2A]	6%	14%	21%	16%	26%	27** %	17%	1.0 fold	1.0 fold	1.0 fold	25** %	18%	1.0 fold	1.1 fold	1.0 fold	7.9 fold	6.8 fold	1.6 fold	42** %	334
